# ChEMBL document CHEMBL5604063, “ASAP - DENV-2 NS2B-NS3 protease fluorescence dose response” (2024)
# Where “and” joins values, the source holds several entries; their conditions need not be identical. Equal entries are not always repeated.
# Assays:
# [1] = molecular target: T1, Genome polyprotein (dengue virus type 2, UniProt P29990); type: functional, Thailand/16681/1984
# [2] = molecular target: T1, Genome polyprotein; type: functional, Thailand/16681/1984; remark: listed apart in the source
# T1 sequence (P29990 1346-1475 limits assumed): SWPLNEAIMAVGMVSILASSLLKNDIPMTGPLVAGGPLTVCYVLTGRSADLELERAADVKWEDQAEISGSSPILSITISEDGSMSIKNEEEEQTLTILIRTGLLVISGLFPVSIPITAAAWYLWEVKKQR
# T1 sequence (P29990 1476-2093 limits assumed): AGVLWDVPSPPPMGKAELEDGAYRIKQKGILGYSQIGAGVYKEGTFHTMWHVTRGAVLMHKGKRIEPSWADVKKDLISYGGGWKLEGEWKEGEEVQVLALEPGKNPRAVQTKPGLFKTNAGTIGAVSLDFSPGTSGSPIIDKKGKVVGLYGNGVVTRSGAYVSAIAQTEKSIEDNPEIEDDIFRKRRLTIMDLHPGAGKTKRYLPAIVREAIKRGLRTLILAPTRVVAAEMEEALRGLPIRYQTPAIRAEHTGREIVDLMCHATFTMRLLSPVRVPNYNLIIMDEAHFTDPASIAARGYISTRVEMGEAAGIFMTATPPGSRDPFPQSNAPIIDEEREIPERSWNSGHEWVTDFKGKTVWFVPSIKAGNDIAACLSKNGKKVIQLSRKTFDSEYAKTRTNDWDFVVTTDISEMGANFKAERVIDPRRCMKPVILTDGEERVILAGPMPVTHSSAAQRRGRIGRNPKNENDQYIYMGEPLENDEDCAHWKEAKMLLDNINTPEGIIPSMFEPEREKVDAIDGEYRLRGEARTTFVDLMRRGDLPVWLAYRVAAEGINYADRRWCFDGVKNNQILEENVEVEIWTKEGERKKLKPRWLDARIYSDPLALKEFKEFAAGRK
Structure (SMILES),IC50 [1] [µM],IC50 [2]
O=C(Nc1cc2c(cn1)CNC2)c1cc(F)cc2[nH]ncc12,> 99.5,> 100 µM
CC[C@@H](Cc1nnn[nH]1)c1ccc(NC(=O)c2cc(Cl)cc(NC(=O)OCc3ccccc3)c2)cc1,8.85,8.21 µM and 8.62 µM
Nc1nc2ccc(NC(=O)c3cc(Cl)cc(NC(=O)OCc4ccccc4)c3)cc2[nH]1,> 99.5,> 100 µM
O=C(Nc1cc(Cl)cc([C@H]2CN(Cc3ccccc3)C[C@@H]2c2cccc(-c3nn[nH]n3)c2)c1)OCc1ccccc1,6.12,5.87 µM and 5.96 µM
CCNC(=O)Nc1cc(Cl)cc(C(=O)Nc2cccc(-n3nn[nH]c3=O)c2)c1,> 99.5,> 100 µM
O=C(Nc1ccc2c(c1)CNC2)c1cccc2[nH]ccc12,> 99.5,> 100 µM
C=CCNC(=O)C1(NC(=O)c2cccc3c2CC(=O)N3)CCCCC1,> 99.5,> 100 µM
O=C(Nc1ccc2c(c1)CNC2)c1ccc2[nH]ncc2c1,> 99.5,> 100 µM
CCNC(=O)Nc1cc(Cl)cc(C(=O)Nc2cccc(-c3nn[nH]n3)c2)c1,> 99.5,> 100 µM
O=C(O)c1cc2cc(-c3cc(Cl)cc(C4CC4)c3)ccc2[nH]1,15.7,11.4 µM and 11 µM
O=C(Nc1cc(Cl)cc(C(=O)Nc2ccc3c(c2)CNCCO3)c1)OCc1ccccc1,> 99.5,> 100 µM
NCc1cccc(NC(=O)c2cc(NC(=O)OCc3ccccc3)cc(C(N)=O)c2)c1,> 99.5,> 100 µM
NCc1cccc(NC(=O)c2ccc(=O)n(Cc3ccccc3Cl)c2)c1,> 99.5,> 100 µM
O=C1Cc2c(cccc2C(=O)Nc2nc([C@H]3CCCOC3)cs2)N1,> 99.5,> 100 µM
O=C(Nc1ccc2c(c1)CNC2)c1cc(Cl)cc2[nH]c(-c3cnccc3O)nc12,37.1,> 100 µM
O=C(Nc1cc(Cl)cc(C(=O)Nc2nccn2C2CNC2)c1)OCc1ccccc1,> 99.5,> 100 µM
O=C(Nc1cc(-c2cccnc2)ccn1)c1cc2n(n1)CC(F)(F)C2,> 99.5,> 100 µM
C[C@H]1CN(C)C[C@@H](C(=O)Nc2cccc(CN)c2)O1,> 99.5,> 100 µM
O=C(Nc1cc(Cl)cc(C(=O)Nc2cncc(C(=O)O)c2)c1)OCc1ccccc1,70,32.1 µM and 27.5 µM
NCc1cccc(NC(=O)[C@H]2C[C@@H](C(F)(F)F)C[C@@H](C(F)(F)F)C2)c1,> 99.5,> 100 µM
NCc1cc(NC(=O)c2cc(Cl)cc(NC(=O)OCc3ccccc3)c2)cc(-c2ccc(OCC(=O)O)nc2)c1,> 99.5,> 100 µM
Cc1cc(=O)c(C(=O)Nc2cccc(CN)c2)nn1-c1ccccc1C(F)(F)F,> 99.5,> 100 µM
Cn1ncc2c(C(=O)Nc3ccc4c(c3)CNC4)cc(-c3cccnc3)nc21,92.7,> 100 µM

Structure (SMILES),IC50 [1] [µM],IC50 [2]
CN(C)[C@H](C(=O)Nc1cccc(CN)c1)c1cc(Cl)cc(Cl)c1,> 99.5,> 100 µM
Cc1c(C(=O)Nc2ncc3c(c2C#N)CCOC3)cc(C2CC2)n1C,> 99.5,> 100 µM
Cc1cc(C(=O)Nc2cccc(CN)c2)cc(NCc2cnn(C)c2)n1,> 99.5,> 100 µM
O=C(Nc1cc(Cl)cc(C(=O)NCc2n[nH]c3c2CNCC3)c1)OCc1ccccc1,> 99.5,> 100 µM
Nc1nc2c(Br)cc(C(=O)Nc3ccc4c(c3)CNC4)cc2s1,28.2,51.9 µM and 37.3 µM
O=C(Nc1cc(Cl)cc(C(=O)Nc2ccnc([C@H]3CCCN3)n2)c1)OCc1ccccc1,> 99.5,> 100 µM
Cc1c(C(=O)Nc2cc(CCCN)ccn2)cc(C(C)C)n1C,> 99.5,> 100 µM
NCc1cccc(NC(=O)[C@@H](NC(=O)OCc2ccccc2)C2CCN(Cc3cn[nH]c3)CC2)c1,> 99.5,> 100 µM
NCCCc1ccnc(NC(=O)c2cc(Cl)cc(NC(=O)OCc3ccccc3)c2)c1,48.2,> 100 µM
O=C(Nc1ccc2c(c1)CNC2)c1ccn[nH]1,> 99.5,> 100 µM
CS(=O)(=O)Nc1cccc(NC(=O)c2cc(Cl)cc(NC(=O)OCc3ccccc3)c2)c1,> 99.5,> 100 µM
NS(=O)(=O)c1cccc(N2CCN(Cc3c[nH]c4ccccc34)CC2)c1,> 99.5,> 100 µM
Cc1nc2ccc(C(=O)Nc3ccc4c(c3)CNC4)cc2s1,> 99.5,> 100 µM
O=C(Nc1ccc2c(c1)CNC2)c1cc(F)cc2[nH]c(-c3ccc(F)cc3O)nc12,62.1,> 100 µM
CO[C@H]1C[C@H](n2cc3c(C(=O)Nc4ccc5c(c4)CNC5)cc(Cl)cc3n2)C1,> 99.5,> 100 µM
CCNC(=O)Nc1cc(Cl)cc(C(=O)Nc2cc(CCCN)ccc2F)c1,> 99.5,> 100 µM
NCc1ccc(F)c(NC(=O)c2cc(Cl)cc(NC(=O)OCc3ccccc3)c2)c1,> 99.5,> 100 µM
O=C(Nc1ccc2c(c1)CNC2)N1CCC[C@H](Cc2nccs2)C1,> 99.5,> 100 µM
O=C(O)c1cc2cc(-c3cccc([C@H]4CCOC4)n3)ccc2[nH]1,> 99.5,> 100 µM
N#Cc1cc(Cl)cc(-c2ccc3[nH]c(C(=O)O)cc3c2)c1,> 99.5,> 100 µM and 82.1 µM
Cc1nc(-c2ccc(Cl)cc2)sc1C(=O)Nc1cccc(CN)c1,> 99.5,> 100 µM
CNC(=O)[C@H](Nc1ccc2c(c1)CNC2)c1cc(Cl)cc2[nH]ncc12,> 99.5,> 100 µM
O=C(Cn1ccnc(N2CC[C@H](CO)C2)c1=O)NCc1ccsc1,> 99.5,> 100 µM

Structure (SMILES),IC50 [1] [µM],IC50 [2]
N#C[C@H](Nc1ccc2c(c1)CNC2)c1cccc2[nH]ncc12,> 99.5,> 100 µM
CCOc1cccc(-c2cccc(NC(=O)c3cc(C4CC4)n(C)c3C)n2)c1,> 99.5,> 100 µM
O=C(Nc1cc([C@H]2CCOC2)ccn1)c1cc(Cl)cc2c1CCC2,> 99.5,> 100 µM
O=C(O)c1nn(-c2ccccc2)cc1Cc1c[nH]c2ccc(Cl)cc12,56.5,61 µM
CC(C)Nc1c(-c2cc(Cl)cc3[nH]ncc23)nc2ccc3c(n12)CNC3,> 99.5,> 100 µM
Cc1ccc2cc(Cl)cc(C(=O)Nc3ccc4c(c3)CNC4)c2n1,85.7,53.2 µM and > 100 µM
NCc1cc(NC(=O)c2cc(Cl)cc(NC(=O)OCc3ccccc3)c2)cc(-c2cccc(CC(=O)O)c2)c1,> 99.5,> 100 µM
CC(C)N1C(=O)C[C@H](C(=O)Nc2cccc(CN)c2)[C@H]1c1ccc(Cl)c(F)c1,> 99.5,> 100 µM
C[C@@H](N)c1ccc(NC(=O)c2cc(Cl)cc3[nH]ncc23)cc1,> 99.5,> 100 µM
NCc1cccc(NC(=O)c2cc(Cl)cc(F)c2F)c1,> 99.5,> 100 µM
O=C(Nc1cccc(-n2nn[nH]c2=O)c1)c1cc(Cl)cc(N2CCCC2=O)c1,> 99.5,> 100 µM
CC1(c2nc(C(=O)Nc3cc(-c4cccnc4)ccn3)no2)CC1,> 99.5,> 100 µM
NCc1cccc(NC(=O)[C@H](NC(=O)OCc2ccccc2)C2CCN(S(=O)(=O)c3cccnc3)CC2)c1,> 99.5,> 100 µM
CSc1cc(Cl)cc(C(=O)Nc2cccc(-n3nn[nH]c3=O)c2)c1,> 99.5,78.2 µM
CN(c1ccc2c(c1)CNC2)[C@H](C(=O)NCC(F)F)c1cc(Cl)cc(C2CC2)c1,> 99.5,> 100 µM
C[C@H]1NCc2ccc(NC(=O)c3cc(Cl)cc4[nH]ncc34)cc21,> 99.5,> 100 µM
CC[C@H](Cc1nnn[nH]1)c1ccc(NC(=O)c2cc(Cl)cc(C#N)c2)cc1,> 99.5,> 100 µM
Cc1cnccc1-c1cc(NC(=O)c2cc(F)cc3[nH]ncc23)cc2c1CNC2,> 99.5,65.4 µM
Cc1cc(-c2cc(F)cc(C(=O)Nc3ccc4c(c3)CNC4)c2)[nH]n1,> 99.5,> 100 µM
N[C@H]1CCc2ccc(NC(=O)c3cc(Cl)cc4[nH]ncc34)cc21,> 99.5,> 100 µM
O=C1Cc2c(cccc2C(=O)N[C@H]2C[C@H](c3ccon3)C2)N1,> 99.5,> 100 µM
O=C(Nc1ccc2c(c1)CNC2)c1cc(Br)cc2c1OCO2,> 99.5,> 100 µM
